From publication PMC1570497, “HIV-2 Protease resistance defined in yeast cells” (Retrovirology, 2006)
Residue numbers refer to the chain shown, from its start. Values joined by “and” are separate entries in the source; they are usually repeats but may differ in a detail not shown here. Equal values may be shown once.

Legend:
[1] = biological target: T1, HIV-2ROD Protease (wild type) (Human immunodeficiency virus type 2 subtype A, UniProt P04584); assay: yeast growth rescue assay, HIV-2ROD Protease expressed in BY4741 yeast; assay type: cell-based; conditions: for Phenotype (transformed yeast) (% cell growth): galactose, wild type ROD Protease; for Phenotype (transformed yeast) (% cell growth) / IC50: 48 h; for IC50isolate/IC50ROD: ROD (reference); for IC50: ROD Protease
T1 construct: initiator Met (added ATG start codon) (N); expressed in transfected cells; host or cells: Saccharomyces cerevisiae BY4741, pRS316Gal1/10-HIV2PR (galactose-inducible)
T1 sequence (P04584 514-612 limits assumed): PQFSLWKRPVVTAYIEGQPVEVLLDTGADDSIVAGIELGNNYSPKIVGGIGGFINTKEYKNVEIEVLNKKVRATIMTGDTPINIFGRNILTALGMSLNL

HIV-2 Protease MRT-20 = HIV-2 Protease MRT-20 (Human immunodeficiency virus type 2, UniProt P04584, cells depend on it, form not given); assay: yeast growth rescue assay, Protease from infected individual; assay type: cell-based; conditions: for Phenotype (transformed yeast) (% cell growth) / IC50: MRT-20 Protease; for IC50isolate/IC50ROD: MRT-20; for IC50: yeast
Chain of HIV-2 Protease MRT-20 (P04584 514-612 limits assumed, stated change not applied): as the sequence (P04584 514-612 limits assumed) above

HIV-2ROD Protease L90M = biological target: T2, HIV-2ROD Protease L90M (Human immunodeficiency virus type 2 subtype A, UniProt P04584, L603M); assay: cell-based; assay type: cell-based; conditions: for IC50mutant/IC50ROD: L90M
T2 sequence (P04584 514-612 L603M): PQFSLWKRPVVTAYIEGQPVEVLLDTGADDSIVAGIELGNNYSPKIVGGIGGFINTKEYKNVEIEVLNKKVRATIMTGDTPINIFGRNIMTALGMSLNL

HIV-2ROD Protease L99F = biological target: T3, HIV-2ROD Protease L99F (Human immunodeficiency virus type 2 subtype A, UniProt P04584, L612F); assay: cell-based; conditions: for IC50mutant/IC50ROD: L99F
T3 construct: contains a Phe codon at position 99 of the HIV-2 Protease, followed by a stop codon; initiator Met (start codon of primer Fwd) (N); expressed in transfected cells; host or cells: Saccharomyces cerevisiae BY4741, pRS316GAL1/10
T3 sequence (P04584 514-612 L612F): T2 sequence (P04584 514-612 L603M) with M90L, L99F

HIV-2ROD Protease = biological target: T4, HIV-2ROD Protease (Human immunodeficiency virus type 2 subtype A, UniProt P04584); assay type: cell-based
T4 construct: initiator Met (added ATG start codon) (N); expressed in transfected cells; host or cells: Saccharomyces cerevisiae BY4741, pRS316Gal1/10-HIV2PR (galactose-inducible)
T4 sequence (P04584 514-612 limits assumed): as the sequence (P04584 514-612 limits assumed) above

HIV-2ROD wild type = tested on: HIV-2ROD wild type; set-up: method as in previously published data; key: resistant (R); sensitive (S); conditions: ref previously published data; cited from earlier work
HIV-2 K45R = tested on: HIV-2 K45R; set-up: method as in PMID 16464891; key: resistant (R); sensitive (S); conditions: cited from earlier work
HIV-2 V20A, I54M = tested on: HIV-2 V20A, I54M; set-up: method as in PMID 16464891; key: resistant (R); sensitive (S); conditions: cited from earlier work
Protease from HIV-2ROD = tested on: Protease from HIV-2ROD; set-up: method as in PMID 16464891, PMID 16327332; conditions: read-out: IC50 already reported in the literature; cited from earlier work
HIV-2 Protease MRT-1 = HIV-2 Protease MRT-1 (Human immunodeficiency virus type 2, UniProt P04584, cells depend on it, form not given); assay: yeast growth rescue assay, Protease from infected individual; conditions: for Phenotype (transformed yeast) (% cell growth) / IC50: MRT-1 Protease; for IC50: yeast
Chain of HIV-2 Protease MRT-1 (P04584 514-612 limits assumed, change not shown): as the sequence (P04584 514-612 limits assumed) above

HIV-2 Protease MRT-7 = HIV-2 Protease MRT-7 (Human immunodeficiency virus type 2, UniProt P04584, cells depend on it, form not given); assay: as above; conditions: for Phenotype (transformed yeast) (% cell growth) / IC50: MRT-7 Protease; for IC50: yeast
Chain of HIV-2 Protease MRT-7 (P04584 514-612 limits assumed, stated change not applied): as the sequence (P04584 514-612 limits assumed) above

HIV-2 Protease MRT-8 = HIV-2 Protease MRT-8 (Human immunodeficiency virus 2, UniProt P04584, L603M, cells depend on it, form not given); assay: as above; conditions: for Phenotype (transformed yeast) (% cell growth) / IC50: MRT-8 Protease; for IC50: yeast
HIV-2 Protease MRT-22 = HIV-2 Protease MRT-22 (Human immunodeficiency virus type 2, UniProt P04584, cells depend on it, form not given); assay: as above; conditions: for Phenotype (transformed yeast) (% cell growth) / IC50: MRT-22 Protease; for IC50isolate/IC50ROD: MRT-22; for IC50: yeast
Chain of HIV-2 Protease MRT-22 (P04584 514-612 limits assumed, change not shown): as the sequence (P04584 514-612 limits assumed) above

HIV-2 Protease MRT-25 = HIV-2 Protease MRT-25 (Human immunodeficiency virus type 2, UniProt P04584, cells depend on it, form not given); assay: as above; conditions: for Phenotype (transformed yeast) (% cell growth) / IC50: MRT-25 Protease; for IC50: yeast
Chain of HIV-2 Protease MRT-25 (P04584 514-612 limits assumed, change not shown): as the sequence (P04584 514-612 limits assumed) above

HIV-2 Protease MRT-29 = HIV-2 Protease MRT-29 (Human immunodeficiency virus type 2, UniProt P04584, cells depend on it, form not given); assay: as above; conditions: for Phenotype (transformed yeast) (% cell growth) / IC50: MRT-29 Protease; for IC50isolate/IC50ROD: MRT-29; for IC50: yeast
Chain of HIV-2 Protease MRT-29 (P04584 514-612 limits assumed, stated change not applied): as the sequence (P04584 514-612 limits assumed) above

HIV-2 M76V = tested on: HIV-2 M76V; set-up: key: resistant (R); sensitive (S); conditions: cited from earlier work

Structure (SMILES) | IC50isolate/IC50ROD [1] | IC50 [1] [µM] | IC50isolate/IC50ROD (HIV-2 Protease MRT-20) | IC50 (HIV-2 Protease MRT-20) [µM] | IC50 (HIV-2ROD Protease L90M) [µM] | IC50mutant/IC50ROD (HIV-2ROD Protease L90M) | IC50 (HIV-2ROD Protease L99F) [µM] | IC50mutant/IC50ROD (HIV-2ROD Protease L99F) | Phenotype (virus production) (HIV-2ROD wild type) | Phenotype (virus production) (HIV-2 K45R) | Phenotype (virus production) (HIV-2 V20A, I54M) | IC50 (Protease from HIV-2ROD) [µM] | IC50 (HIV-2 Protease MRT-1) [µM] | IC50 (HIV-2 Protease MRT-7) [µM] | IC50 (HIV-2 Protease MRT-8) [µM] | IC50isolate/IC50ROD (HIV-2 Protease MRT-22) | IC50 (HIV-2 Protease MRT-22) [µM] | IC50 (HIV-2 Protease MRT-25) [µM] | IC50isolate/IC50ROD (HIV-2 Protease MRT-29) | IC50 (HIV-2 Protease MRT-29) [µM] | further results
Cc1cccc(C)c1OCC(=O)N[C@@H](Cc1ccccc1)[C@@H](O)C[C@H](Cc1ccccc1)NC(=O)[C@H](C(C)C)N1CCCNC1=O [LPV, Lopinavir] | 1.00 | 16.6 ± 2.5 | 1.40 | 23.2 ± 4.4 | 12.5 ± 8.1 | 0.75 | 11.1 ± 3.1 | 0.67 | S | R [9] | R [9] | 0.027 | 48 ± 3.2 | 10.8 ± 5 | 12.5 ± 1.5 | 0.91 | 15.1 ± 4.3 | 19.9 ± 4.6 | 0.84 | 13.9 ± 5.5 | Phenotype (transformed yeast) (% cell growth) ([1]; LPV at 150 μM): 91.5% and 91.5+/-1.2%; Phenotype (transformed yeast) (% cell growth) (HIV-2 Protease MRT-20; LPV at 150 μM): 71.5+/-1.2%; growth in galactose (HIV-2ROD Protease; 60 μM LPV): grew in galactose; Phenotype (transformed yeast) (% cell growth) (HIV-2 Protease MRT-1; LPV at 150 μM): 50.0+/-3.0%; Phenotype (transformed yeast) (% cell growth) (HIV-2 Protease MRT-7; LPV at 150 μM): 100.0+/-4.7%; Phenotype (transformed yeast) (% cell growth) (HIV-2 Protease MRT-8; LPV at 150 μM): 82.0+/-7.5%; Phenotype (transformed yeast) (% cell growth) (HIV-2 Protease MRT-22; LPV at 150 μM): 98.5+/-1.0%; Phenotype (transformed yeast) (% cell growth) (HIV-2 Protease MRT-25; LPV at 150 μM): 100.0+/-2.0%; IC50isolate/IC50ROD (HIV-2 Protease MRT-25; MRT-25): 1.20; Phenotype (transformed yeast) (% cell growth) (HIV-2 Protease MRT-29; LPV at 150 μM): 93.0+/-2.0%
CC(C)(C)NC(=O)[C@@H]1C[C@@H]2CCCC[C@@H]2CN1C[C@@H](O)[C@H](Cc1ccccc1)NC(=O)[C@H](CC(N)=O)NC(=O)c1ccc2ccccc2n1 [SQV, Saquinavir] | 1.00 | 150 ± 7.2 | 0.79 | 118 ± 6.3 | 554.1 ± 3.9 | 3.7 | 147 ± 5.1 | 0.98 | S | R [9] | R [9] | 0.011 | 200 ± 5.1 | 68.9 ± 6.2 | 553.9 ± 4.2 | 0.70 | 105 ± 7.1 | 48.5 ± 4.7 | 1.02 | 153 ± 3 | Phenotype (transformed yeast) (% cell growth) ([1]; SQV at 1mM): 75% and 75.0+/-7.0%; Phenotype (transformed yeast) (% cell growth) (HIV-2 Protease MRT-20; SQV at 1mM): 78.0+/-3.0%; growth on galactose plates (lethal phenotype) (HIV-2ROD Protease; SQV at 200 μM, 2 days at 30°C): the lethal phenotype was no longer observed; Phenotype (virus production) (HIV-2 M76V): R [10]; IC50isolate/IC50ROD (HIV-2 Protease MRT-1; MRT-1): 1.34; Phenotype (transformed yeast) (% cell growth) (HIV-2 Protease MRT-1; SQV at 1mM): 71.0+/-5%; IC50isolate/IC50ROD (HIV-2 Protease MRT-7; MRT-7): 0.46; Phenotype (transformed yeast) (% cell growth) (HIV-2 Protease MRT-7; SQV at 1mM): 98.0+/-6%; IC50isolate/IC50ROD (HIV-2 Protease MRT-8; MRT-8): 4.2 and 4.23; Phenotype (transformed yeast) (% cell growth) (HIV-2 Protease MRT-8; SQV at 1mM, 1000 µM): 55% and 55.0+/-6.3%; Phenotype (transformed yeast) (% cell growth) (HIV-2 Protease MRT-22; SQV at 1mM): 82.0+/-7.1%; Phenotype (transformed yeast) (% cell growth) (HIV-2 Protease MRT-25; SQV at 1mM): 100.0+/-9.4%; Phenotype (transformed yeast) (% cell growth) (HIV-2 Protease MRT-29; SQV at 1mM): 72.0+/-3.0%
